In patent US4965280A, “Antifungal carbinols” (E. I. Du Pont de Nemours and Company, priority 1989, dated 1990):
In brackets after ≈: the same amount, converted by molar mass. Like-named read-outs stand apart in the source and are kept apart here.

What was measured:
[1] = test system: Aspergillus fumigatus ATCC 28214; assay: In vitro antifungal MIC, microtiter broth dilution; settings: Aspergillus fumigatus, ATCC28214, 24 h, read-out: MIC values, A. fumigatus, 30°, 24 hours
Protocol: In vitro activity (Table 5) is expressed in terms of the minimal inhibitory concentration (MIC) of the test compound which inhibits the growth of yeasts and fungi.
The target organisms, Candida albicans ATCC 11651 and Aspergillus fumigatus ATCC 28214 are standardized, [V. Bezjak, J. Clinical Micro., 21 509-512 (1984)], to a concentration of 10^7 organisms/ml and maintained at -70° until use. Test compounds are solubilized in dimethyl sulfoxide (DMSO) and diluted in Eagle's Minimum Essential Medium (EMEM) broth to achieve a final concentration of 200 μg/ml. Stock solutions of standard antifungal agents are stored at -70° and diluted in EMEM as required.
The in vitro assay utilizes a microtiter broth dilution technique [L. Polonelli and G. Morace, Mycopathologia, 86, 21-28 (1984)] and C. […] The appropriate wells are inoculated with the required organism (C. albicans at 1×10^4 organisms/ml and A. fumigatus at 5×10^5 organisms/ml) and the assay incubated at 30° for 24 hours.

[2] = test system: Erysiphe graminis f. sp. tritici; assay: Example D wheat powdery mildew; format: in vivo; settings: Blumeria graminis, 144 h, read-out: disease control rating, Ex. D
Procedure, shortened: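 Spray to run-off on wheat seedlings; test suspension 100 or 20 ppm compound, acetone 6% v/v, 250 ppm polyhydric alcohol ester surfactant in water.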

[3] = test system: Candida albicans ATCC 11651; assay: In vivo systemic Candida infection in mice, primary assay; parameters: species or system Candida albicans; CF-1 female mice; settings: Candida albicans, 150 mg/kg per day, read-out: % Survival
Procedure, shortened: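 CF-1 female mice (20 g, 10 per group) were infected IV with 0.2 ml of 1×10^7/ml C. albicans ATCC 11651, then given test compound subcutaneously at 50 or 150 mg/kg/day at 1 and 6 h post-infection and once daily for three more days. Survival was followed for 21 days against infected untreated mice; ≥70% protection at 14 days was scored active.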

Pythium aphanadermatum = assay: Example J cucumber damping off; format: in vivo; settings: Pythium, 336 h; 5 kg/ha; read-out: disease control rating, Ex. J
Procedure, shortened: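 This cucumber damping-off test used soil and seeds infested with a sand–cereal preparation carrying mycelium of Pythium aphanadermatum. Incubation took place in a growth chamber held at 30° C. for 14 days. Afterwards, the extent of disease was scored as a disease control rating.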

[4] = test system: Fusarium oxysporum f. sp. cucumerinum; assay: Example L cucumber wilt; format: in vivo; settings: 336 h, 5 kg/ha, read-out: disease control rating, Ex. L
Protocol: […] Seeds and soil were then inoculated with a mixture of sand, cereal and mycelium of the fungus Fusarium oxysporum f. sp. cucumerinum, causal agent of cucumber wilt, and incubated in a growth chamber at 30° C. for 14 days. Disease ratings were then made.

[5] = test system: Candida albicans ATCC 11651; assay: In vitro antifungal MIC, microtiter broth dilution; settings: for MIC: Candida albicans, ATCC11651, 24 h, read-out: MIC values, C. albicans, 30°, 24 hours
Rhizoctonia solani = assay: Example F rice sheath blight; format: in vivo; settings: Rhizoctonia solani, 144 h, read-out: disease control rating, Ex. F
Procedure, shortened: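 Spray to run-off on rice seedlings; test suspension 100 or 20 ppm compound in water + 250 ppm TREM 014 surfactant, acetone 6% final volume.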

Puccinia recondita = assay: Example G wheat leaf rust; format: in vivo; settings: read-out: disease control rating, Ex. G
Plasmorpara viticola = assay: Example I grape downy mildew; format: in vivo; settings: read-out: disease control rating, Ex. I
Procedure, shortened: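 Applied as a foliar spray to run-off on grape seedlings, the compounds were formulated at 100 or 20 ppm in water containing 250 ppm TREM 014, with acetone making up 6% of the volume.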

[6] = test system: Cercosporidium personatum; assay: Example B Peanut Late Leafspot; format: in vivo; settings: Nothopassalora personata, read-out: disease control rating, Ex. B
Procedure, shortened: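 Foliar spray on peanut seedlings, to run-off; test rates 100 or 20 ppm. Formulation: acetone at 6% of final volume, water with 250 ppm polyhydric alcohol ester surfactant.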

Venturia inaequalis = assay: Example A apple scab; format: in vivo; settings: read-out: disease control rating, Ex. A
Procedure, shortened: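 Acetone solution (6% of final vol.) → suspension at 100 or 20 ppm in water + 250 ppm TREM 014 surfactant; sprayed to run-off on apple seedlings.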

Botrytis cinerea = assay: Example C bean grey mold; format: in vivo; settings: Botrytis cinerea, 24 h, read-out: disease control rating, Ex. C
Procedure, shortened: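 Broad bean seedlings; foliar spray to run-off. Cmpd 100 or 20 ppm in water + 250 ppm TREM 014, acetone 6% v/v final.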

Phytophthora infestans = assay: whole plant or invertebrate; format: in vivo; settings: Phytophthora infestans, in Solanum lycopersicum, read-out: disease control rating, Ex. H, 100 PPM
Pyricularia oryzae = assay: whole plant or invertebrate; format: in vivo; settings: Pyricularia oryzae, 120 h; for pest or weed control at 100 ppm: read-out: disease control rating, Ex. E, 100 PPM

Row | Compound | MIC [1] | pest or weed control at 100 ppm [2] | responders at 150 mg/kg ([3]; ATCC11651, 168 h, day 7) | responders at 150 mg/kg ([3]; ATCC11651, 336 h, day 14) | responders at 150 mg/kg ([3]; ATCC11651, 504 h, day 21) | pest or weed control at 5000 g/ha (Pythium aphanadermatum) | pest or weed control at 5000 g/ha [4] | MIC [5] | pest or weed control at 100 ppm (Rhizoctonia solani) | pest or weed control at 100 ppm (Puccinia recondita) | pest or weed control at 100 ppm (Plasmorpara viticola) | pest or weed control at 100 ppm [6] | pest or weed control at 100 ppm (Venturia inaequalis) | pest or weed control at 100 ppm (Botrytis cinerea) | pest or weed control at 100 ppm (Phytophthora infestans) | pest or weed control at 100 ppm (Pyricularia oryzae) | other results
1 | OC(Cn1cncn1)(c1ccc(F)cc1)C1(c2ccccc2)CO1 (centres unmarked) [Example 1527] | 6.3 µg/mL (≈ 19.4 µM) | 100% | 100% | 70% | 20% | 0% | 0% | 0.4 µg/mL (≈ 1.23 µM) | 35% | 100% | 0% | 100% | 0% | 93% | 0% | – | –
2 | C=C(c1ccccc1)[C@](O)(Cn1cncn1)c1ccc(F)cc1 [Example 1276] | 1.6 µg/mL (≈ 5.17 µM) | 100% | 100% | 70% | 50% | 0% | 0% | 0.03 µg/mL (≈ 0.097 µM) | 97% | 100% | 0% | – | 100% | 96% | 0% | 1% | pest or weed control at 20 ppm ([2]; 20 PPM): 100%; pest or weed control at 20 ppm (Pyricularia oryzae; read-out: disease control rating, Ex. E, 20 PPM): 1%; pest or weed control at 20 ppm (Rhizoctonia solani; 20 PPM): 52%; pest or weed control at 20 ppm (Puccinia recondita; 20 PPM): 100%; pest or weed control at 20 ppm ([6]; 20 PPM): 100%; pest or weed control at 20 ppm (Venturia inaequalis; 20 PPM): 93%; pest or weed control at 20 ppm (Botrytis cinerea; 20 PPM): 86%
3 | C=C(c1cccc(F)c1)C(O)(Cn1cncn1)c1ccc(F)cc1 (centres unmarked) [Example 15] | 50 µg/mL (≈ 153 µM) | 100% | 100% | 90% | 60% | 0% | 0% | 0.1 µg/mL (≈ 0.305 µM) | 93% | 100% | 0% | 100% | 100% | 99% | 26% | 1% | –
4 | C=C(c1ccccc1)C(O)(Cn1cncn1)c1ccc(F)cc1 (centres unmarked) [Example 49, 2-(4-Fluorophenyl)-3-phenyl-1-(1H-1,2,4-triazol-1-yl)-3-buten-2-ol] | 12.5 µg/mL (≈ 40.4 µM) | 100% | 100% | 90% | 60% | 0% | 0% | 0.03 µg/mL (≈ 0.097 µM) | 96% | 100% | 0% | 100% | 89% | 62% | 0% | 76% | –
5 | C=C(c1ccc(F)cc1)C(O)(Cn1cncn1)c1ccc(F)cc1 (centres unmarked) [Example 1, 2,3-Bis(4-fluorophenyl)-1-(1H-1,2,4-triazol-1-yl)-3-buten-2-ol] | 6.3 µg/mL (≈ 19.2 µM) | 98% | 100% | 100% | 80% | 0% | 0% | – | 97% | 100% | 12% | 100% | 62% | 81% | 0% | 90% | MIC values, C. albicans ([5]; 30°, 24 hours): ≤ 0.01 µg/mL
6 | C=C(c1ccc(F)cc1)C(O)(Cn1ncnc1I)c1ccccc1F (centres unmarked) [Example 1377] | 100 µg/mL (≈ 221 µM) | 92% | – | – | – | 0% | 0% | 1.6 µg/mL (≈ 3.53 µM) | 100% | 100% | 44% | 100% | 100% | 96% | 0% | 58% | –
